Reference: ChEMBL document CHEMBL1201862, “PubChem BioAssay data set” (2004)
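Protocol summary: plate cells (96-well), add compound at 5 concentrations, incubate 48 h, interpolate endpoints linearly. At the GI50, growth is halved.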 Activity calls are given as the source filed them. Cut-off read from the data, not from the text of the source: active = GI50 up to about 1.1 µM and inactive = higher.

Legend:
Experiment in all cases: growth of human tumour cells (NCI), 48 h
K562 = test system: K562
CAKI-1 = test system: CAKI-1
SF-295 = test system: SF-295
IGROV-1 = test system: IGROV-1
M14 = test system: M14
HT-29 = test system: HT-29
KM-20L2 = test system: KM-20L2
SR = test system: SR
UO-31 = test system: UO-31
NCI-H522 = test system: NCI-H522
HCT-15 = test system: HCT-15
NCI-H23 = test system: NCI-H23
XF498 = test system: XF498
OVCAR-3 = test system: OVCAR-3
SK-MEL-2 = test system: SK-MEL-2
SF-268 = test system: SF-268
RXF 393 = test system: RXF 393
HOP-62 = test system: HOP-62
DLD-1 = test system: DLD-1
M19-MEL = test system: M19-MEL
LOX IMVI = test system: LOX IMVI
HOP-92 = test system: HOP-92
MOLT-4 = test system: MOLT-4
OVCAR-8 = test system: OVCAR-8
NCI-H226 = test system: NCI-H226
A498 = test system: A498
EKVX = test system: EKVX
OVCAR-5 = test system: OVCAR-5
SNB-78 = test system: SNB-78
SK-OV-3 = test system: SK-OV-3
A549 = test system: A549
UACC-62 = test system: UACC-62
SNB-75 = test system: SNB-75
OVCAR-4 = test system: OVCAR-4
SNB-19 = test system: SNB-19
Malme-3M = test system: Malme-3M
DMS-273 = test system: DMS-273
UACC-257 = test system: UACC-257
NCI-H460 = test system: NCI-H460
SF-539 = test system: SF-539
HOP-18 = test system: HOP-18
CCRF-CEM = test system: CCRF-CEM
HL-60 = test system: HL-60
LXFL 529 = test system: LXFL 529
TK-10 = test system: TK-10
SN12C = test system: SN12C
KM12 = test system: KM12
HCT-116 = test system: HCT-116
COLO 205 = test system: COLO 205
U-251 = test system: U-251
DMS-114 = test system: DMS-114
ACHN = test system: ACHN
RPMI-8226 = test system: RPMI-8226
HCC 2998 = test system: HCC 2998
SK-MEL-28 = test system: SK-MEL-28
SW-620 = test system: SW-620
786-0 = test system: 786-0
SK-MEL-5 = test system: SK-MEL-5

## O=C1NC(=S)NC(=O)C1=Cc1ccc[nH]1
K562
  GI50: 11.2 µM (inactive)
CAKI-1
  GI50: 11.2 µM (inactive)
SF-295
  GI50: 10.5 µM (inactive)
IGROV-1
  GI50: 19.6 µM (inactive)
M14
  GI50: 21 µM (inactive)
HT-29
  GI50: 4.38 µM (inactive)
KM-20L2
  GI50: 5.94 µM (inactive)
SR
  GI50: 3.62 µM (inactive)
UO-31
  GI50: 16.6 µM (inactive)
NCI-H522
  GI50: 1.87 µM (inactive)
HCT-15
  GI50: 2.87 µM
NCI-H23
  GI50: 12.4 µM (inactive)
XF498
  GI50: 17.7 µM (inactive)
OVCAR-3
  GI50: 7.38 µM (inactive)
SK-MEL-2
  GI50: 19.7 µM (inactive)
SF-268
  GI50: 22.6 µM (inactive)
RXF 393
  GI50: 2.2 µM (inactive)
HOP-62
  GI50: 32.6 µM (inactive)
DLD-1
  GI50: 6.85 µM (inactive)
M19-MEL
  GI50: 13.4 µM (inactive)
LOX IMVI
  GI50: 9.06 µM (inactive)
HOP-92
  GI50: 19.6 µM (inactive)
MOLT-4
  GI50: 16.2 µM (inactive)
OVCAR-8
  GI50: 4.71 µM (inactive)
NCI-H226
  GI50: 14.5 µM (inactive)
A498
  GI50: 35.2 µM (inactive)
EKVX
  GI50: 24 µM (inactive)
OVCAR-5
  GI50: 23.2 µM (inactive)
SNB-78
  GI50: 19.4 µM (inactive)
SK-OV-3
  GI50: > 100 µM (inactive)
A549
  GI50: 26.7 µM (inactive)
UACC-62
  GI50: 16.7 µM (inactive)
SNB-75
  GI50: 18 µM (inactive)
OVCAR-4
  GI50: 15.3 µM (inactive)
SNB-19
  GI50: 25.8 µM (inactive)
Malme-3M
  GI50: 19.9 µM (inactive)
DMS-273
  GI50: 3.79 µM (inactive)
UACC-257
  GI50: 20.9 µM (inactive)
NCI-H460
  GI50: 8.11 µM (inactive)
SF-539
  GI50: 15.1 µM (inactive)
HOP-18
  GI50: 36.4 µM (inactive)
CCRF-CEM
  GI50: 19.2 µM (inactive)
HL-60
  GI50: 5.27 µM (inactive)
LXFL 529
  GI50: 10.3 µM (inactive)
TK-10
  GI50: 17.4 µM (inactive)
SN12C
  GI50: 10.6 µM (inactive)
KM12
  GI50: 3.48 µM (inactive)
HCT-116
  GI50: 3.48 µM (inactive)
COLO 205
  GI50: 12.2 µM (inactive)
U-251
  GI50: 27.1 µM (inactive)
DMS-114
  GI50: 10.8 µM (inactive)
ACHN
  GI50: 15 µM (inactive)
RPMI-8226
  GI50: 3.41 µM (inactive)
HCC 2998
  GI50: 11.8 µM (inactive)
SK-MEL-28
  GI50: 24.5 µM (inactive)
SW-620
  GI50: 4.81 µM (inactive)
786-0
  GI50: 10.6 µM (inactive)
SK-MEL-5
  GI50: 26.5 µM (inactive)

## C[N+]1(C)C[C@@H](O)C[C@@H]1C(=O)[O-] [BETONICINE]
K562
  GI50: > 100 µM (inactive)
SF-295
  GI50: > 100 µM (inactive)
IGROV-1
  GI50: > 100 µM (inactive)
M14
  GI50: > 100 µM (inactive)
HT-29
  GI50: > 100 µM (inactive)
KM-20L2
  GI50: > 100 µM (inactive)
SR
  GI50: > 100 µM (inactive)
UO-31
  GI50: > 100 µM (inactive)
NCI-H522
  GI50: > 100 µM (inactive)
HCT-15
  GI50: > 100 µM
NCI-H23
  GI50: > 100 µM (inactive)
XF498
  GI50: > 100 µM (inactive)
OVCAR-3
  GI50: > 100 µM (inactive)
SK-MEL-2
  GI50: > 100 µM (inactive)
SF-268
  GI50: > 100 µM (inactive)
RXF 393
  GI50: > 100 µM (inactive)
HOP-62
  GI50: > 100 µM (inactive)
DLD-1
  GI50: > 100 µM (inactive)
M19-MEL
  GI50: > 100 µM (inactive)
LOX IMVI
  GI50: > 100 µM (inactive)
HOP-92
  GI50: > 100 µM (inactive)
MOLT-4
  GI50: > 100 µM (inactive)
OVCAR-8
  GI50: > 100 µM (inactive)
NCI-H226
  GI50: > 100 µM (inactive)
A498
  GI50: > 100 µM (inactive)
EKVX
  GI50: > 100 µM (inactive)
SNB-78
  GI50: > 100 µM (inactive)
SK-OV-3
  GI50: > 100 µM (inactive)
A549
  GI50: > 100 µM (inactive)
UACC-62
  GI50: > 100 µM (inactive)
SNB-75
  GI50: > 100 µM (inactive)
OVCAR-4
  GI50: > 100 µM (inactive)
SNB-19
  GI50: > 100 µM (inactive)
Malme-3M
  GI50: > 100 µM (inactive)
DMS-273
  GI50: > 100 µM (inactive)
UACC-257
  GI50: > 100 µM (inactive)
NCI-H460
  GI50: > 100 µM (inactive)
SF-539
  GI50: > 100 µM (inactive)
HOP-18
  GI50: > 100 µM (inactive)
CCRF-CEM
  GI50: > 100 µM (inactive)
HL-60
  GI50: > 100 µM (inactive)
LXFL 529
  GI50: > 100 µM (inactive)
TK-10
  GI50: > 100 µM (inactive)
SN12C
  GI50: > 100 µM (inactive)
KM12
  GI50: > 100 µM (inactive)
HCT-116
  GI50: > 100 µM (inactive)
COLO 205
  GI50: > 100 µM (inactive)
U-251
  GI50: > 100 µM (inactive)
DMS-114
  GI50: > 100 µM (inactive)
ACHN
  GI50: > 100 µM (inactive)
RPMI-8226
  GI50: > 100 µM (inactive)
HCC 2998
  GI50: > 100 µM (inactive)
SK-MEL-28
  GI50: > 100 µM (inactive)
SW-620
  GI50: > 100 µM (inactive)
786-0
  GI50: > 100 µM (inactive)

## CCCN(CCC)C(=O)Cc1c2n(c3ccccc13)Cc1ccccc1-2
K562
  GI50: > 100 µM (inactive)
CAKI-1
  GI50: 30.1 µM (inactive)
SF-295
  GI50: 33.8 µM (inactive)
M14
  GI50: > 100 µM (inactive)
HT-29
  GI50: 61.8 µM (inactive)
KM-20L2
  GI50: > 100 µM (inactive)
SR
  GI50: 33.1 µM (inactive)
UO-31
  GI50: 35.1 µM (inactive)
NCI-H522
  GI50: 40 µM (inactive)
HCT-15
  GI50: > 100 µM
NCI-H23
  GI50: 45.7 µM (inactive)
XF498
  GI50: > 100 µM (inactive)
OVCAR-3
  GI50: > 100 µM (inactive)
SK-MEL-2
  GI50: 94.4 µM (inactive)
SF-268
  GI50: > 100 µM (inactive)
RXF 393
  GI50: 24.4 µM (inactive)
HOP-62
  GI50: > 100 µM (inactive)
DLD-1
  GI50: 63.4 µM (inactive)
M19-MEL
  GI50: 56.6 µM (inactive)
LOX IMVI
  GI50: 83.4 µM (inactive)
HOP-92
  GI50: 5 µM (inactive)
MOLT-4
  GI50: > 100 µM (inactive)
OVCAR-8
  GI50: > 100 µM (inactive)
NCI-H226
  GI50: > 100 µM (inactive)
EKVX
  GI50: > 100 µM (inactive)
SNB-78
  GI50: > 100 µM (inactive)
SK-OV-3
  GI50: > 100 µM (inactive)
A549
  GI50: 27.9 µM (inactive)
UACC-62
  GI50: 21.1 µM (inactive)
SNB-75
  GI50: 6.62 µM (inactive)
OVCAR-4
  GI50: 49.5 µM (inactive)
SNB-19
  GI50: > 100 µM (inactive)
Malme-3M
  GI50: 58.9 µM (inactive)
DMS-273
  GI50: 29.1 µM (inactive)
UACC-257
  GI50: > 100 µM (inactive)
NCI-H460
  GI50: 63.7 µM (inactive)
SF-539
  GI50: > 100 µM (inactive)
HOP-18
  GI50: > 100 µM (inactive)
CCRF-CEM
  GI50: > 100 µM (inactive)
HL-60
  GI50: 28.8 µM (inactive)
LXFL 529
  GI50: 42.4 µM (inactive)
TK-10
  GI50: > 100 µM (inactive)
SN12C
  GI50: > 100 µM (inactive)
KM12
  GI50: > 100 µM (inactive)
HCT-116
  GI50: 28.8 µM (inactive)
COLO 205
  GI50: 95.3 µM (inactive)
U-251
  GI50: > 100 µM (inactive)
DMS-114
  GI50: 23.6 µM (inactive)
ACHN
  GI50: 12 µM (inactive)
RPMI-8226
  GI50: 59 µM (inactive)
HCC 2998
  GI50: > 100 µM (inactive)
SK-MEL-28
  GI50: > 100 µM (inactive)
SW-620
  GI50: > 100 µM (inactive)
786-0
  GI50: 57 µM (inactive)
SK-MEL-5
  GI50: 29.6 µM (inactive)
